# Data taken from paper PMC3795025, “A Target-Disease Network Model of Second-Generation BCR-ABL Inhibitor Action in Ph+ ALL” (PLoS ONE, 2013).
# Target: LYN (Homo sapiens, UniProt P07948)
# Assay: chemical proteomics pulldown from cell lysate (c-bafetinib beads, competition with […] free drug)
# Type: cell-based
# Chain of LYN (P07948 2-512): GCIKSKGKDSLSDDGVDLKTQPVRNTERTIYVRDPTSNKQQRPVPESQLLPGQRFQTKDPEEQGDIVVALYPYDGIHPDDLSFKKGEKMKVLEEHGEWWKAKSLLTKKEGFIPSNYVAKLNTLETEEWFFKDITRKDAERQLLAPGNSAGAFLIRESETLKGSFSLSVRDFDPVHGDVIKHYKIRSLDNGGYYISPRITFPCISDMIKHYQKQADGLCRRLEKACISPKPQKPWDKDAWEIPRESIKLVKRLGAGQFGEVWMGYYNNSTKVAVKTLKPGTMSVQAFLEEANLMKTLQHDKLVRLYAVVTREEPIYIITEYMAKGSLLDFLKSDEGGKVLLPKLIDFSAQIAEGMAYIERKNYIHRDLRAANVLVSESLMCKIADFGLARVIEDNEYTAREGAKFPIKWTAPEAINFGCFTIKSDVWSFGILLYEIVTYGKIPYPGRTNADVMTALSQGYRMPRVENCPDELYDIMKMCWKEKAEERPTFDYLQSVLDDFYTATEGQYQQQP
structure (smiles),measurement,value
Cc1ccc(NC(=O)c2ccc(CN3CC[C@H](N(C)C)C3)c(C(F)(F)F)c2)cc1Nc1nccc(-c2cncnc2)n1 [bafetinib],"chemical proteomics pulldown from cell lysate (c-bafetinib beads, competition wi)",LYN and BTK have been identified with all four TKI in the present chemical proteomics screen
